Test results from patent US12264159B2, “Functionalized heterocycles as antiviral agents” (Enanta Pharmaceuticals, Inc., priority 2018, dated 2025).

What was measured:
[1] = Compound induced cellular toxicity in HepG2 cells, ATPlite 1Step; type: cell-based; settings: human, three days exposure, 50% reduction of total ATP vs no drug controls
Protocol: At day 3, post seeding cells are treated with ATPlite 1Step according to the manufacturer's instructions.

HBV in 2.2.15 cells = assay: 2.2.15 cells: viral product in cell lysates quantified via quantitative real time PCR; type: cell-based, hepatitis B virus (HBV); settings: Hepatitis B virus, 120 h, day 5 post treatment, 50% reduction of viral product vs no drug controls, readout (qPCR, HBsAg or HBeAg) not specified for the column
Outline: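 HBV product was measured at day 5 by lysate qPCR or by supernatant HBsAg/HBeAg ELISA, in 2.2.15 cells seeded at 35,000/well and exposed to 5-fold compound dilution series (0.5% DMSO). EC50 is 50% reduction of viral product relative to untreated controls.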

Row | Compound | CC50 at 3 days [1] | EC50 (HBV in 2.2.15 cells)
1 | CC(C)(C)[C@@H]1Cn2nc(-c3cccc4cn[nH]c34)cc2-c2cc(=O)c(C(=O)O)cn21 [Example 67, (R)-6-(tert-butyl)-2-(1H-indazol-7-yl)-10-oxo-5,6-dihydro-10H-pyrazolo[1,5-a]pyrido[2,2-c]pyrazine-12-carboxylic acid] | > 25000 nM | < 100 nM
2 | CC(C)(C)[C@@H]1Cn2nc(-c3ccoc3)c(-c3ccoc3)c2-c2cc(=O)c(C(=O)O)cn21 [Example 96, (R)-6-(tert-butyl)-1,2-di(furan-3-yl)-10-oxo-5,6-dihydro-10H-pyrazolo[1,5-a]pyrido[2,1-c]pyrazine-9-carboxylic acid] | > 25000 nM | < 100 nM
3 | CC(C)(C)[C@@H]1Cn2nc(-c3ccoc3)cc2-c2cc(=O)c(C(=O)O)cn21 [Example 4, (R)-6-(tert-butyl)-2-(furan-3-yl)-10-oxo-5,6-dihydro-10H-pyrazolo[1,5-a]pyrido[2,2-c]pyrazine-12-carboxylic acid] | > 25000 nM | 200 to 1000 nM
4 | COc1cccc(C)c1-c1cc2n(n1)C[C@@H](C(C)(C)C)n1cc(C(=O)O)c(=O)cc1-2 [Example 49, (R)-6-(tert-butyl)-2-(2-methoxy-6-methylphenyl)-10-oxo-5,6-dihydro-10H-pyrazolo[1,5-a]pyrido[2,2-c]pyrazine-12-carboxylic acid] | > 25000 nM | 200 to 1000 nM
5 | C[C@@H]1Cn2nc(-c3ccc(F)cc3)c(-c3ccc(F)cc3)c2-c2cc(=O)c(C(=O)O)cn21 [Example 204, (R)-1,2-bis(4-fluorophenyl)-6-methyl-10-oxo-5,6-dihydro-10H-pyrazolo[1,5-a]pyrido[2,1-c]pyrazine-9-carboxylic acid] | > 25000 nM | < 100 nM
6 | CCOc1ccc(OC)cc1-c1cc2n(n1)C[C@@H](C(C)(C)C)n1cc(C(=O)O)c(=O)cc1-2 [Example 37, (R)-6-(tert-butyl)-2-(2-ethoxy-5-methoxyphenyl)-10-oxo-5,6-dihydro-10H-pyrazolo[1,5-a]pyrido[2,2-c]pyrazine-12-carboxylic acid] | > 25000 nM | < 100 nM
7 | CC(C)(C)[C@@H]1Cn2nc(-c3cccc4occc34)cc2-c2cc(=O)c(C(=O)O)cn21 [Example 28, (R)-2-(benzofuran-4-yl)-6-(tert-butyl)-10-oxo-5,6-dihydro-10H-pyrazolo[1,5-a]pyrido[2,2-c]pyrazine-12-carboxylic acid] | > 25000 nM | < 100 nM
8 | CC(C)(C)[C@@H]1Cn2nc(-c3cccc4c3OC(F)(F)O4)c(Cl)c2-c2cc(=O)c(C(=O)O)cn21 [Example 88, (R)-6-(tert-butyl)-1-chloro-2-(2,2-difluorobenzo[d][1,3]dioxol-4-yl)-10-oxo-5,6-dihydro-10H-pyrazolo[1,5-a]pyrido[2,1-c]pyrazine-9-carboxylic acid] | > 25000 nM | < 100 nM
9 | CC(C)(C)[C@@H]1Cn2nc(-c3cccc4c3OCCCO4)cc2-c2cc(=O)c(C(=O)O)cn21 [Example 43, (R)-6-(tert-butyl)-2-(3,4-dihydro-2H-benzo[b][1,4]dioxepin-6-yl)-10-oxo-5,6-dihydro-10H-pyrazolo[1,5-a]pyrido[2,2-c]pyrazine-12-carboxylic acid] | > 25000 nM | < 100 nM
10 | Cc1ncc(-c2cc3n(n2)C[C@@H](C(C)(C)C)n2cc(C(=O)O)c(=O)cc2-3)s1 [Example 19, (R)-6-(tert-butyl)-2-(2-methylthiazol-5-yl)-10-oxo-5,6-dihydro-10H-pyrazolo[1,5-a]pyrido[2,2-c]pyrazine-12-carboxylic acid] | > 25000 nM | < 100 nM
11 | Cc1cccc(-c2c(-c3ccc(F)cc3)nn3c2-c2cc(=O)c(C(=O)O)cn2[C@H](C(C)(C)C)C3)c1 [Example 170, (R)-6-(tert-butyl)-2-(4-fluorophenyl)-10-oxo-1-(m-tolyl)-5,6-dihydro-10H-pyrazolo[1,5-a]pyrido[2,1-c]pyrazine-9-carboxylic acid] | 10000 to 25000 nM | < 100 nM
12 | Cc1ccccc1-c1cnn2c1-c1cc(=O)c(C(=O)O)cn1[C@H](C(C)(C)C)C2 [Example 127, (R)-6-(tert-butyl)-10-oxo-1-(o-tolyl)-5,6-dihydro-10H-pyrazolo[1,5-a]pyrido[2,1-c]pyrazine-9-carboxylic acid] | > 25000 nM | < 100 nM
13 | CNc1ncc(-c2cc3n(n2)C[C@@H](C(C)(C)C)n2cc(C(=O)O)c(=O)cc2-3)cn1 [Example 14, (R)-6-(tert-butyl)-2-(2-(methylamino)pyrimidin-5-yl)-10-oxo-5,6-dihydro-10H-pyrazolo[1,5-a]pyrido[2,2-c]pyrazine-12-carboxylic acid] | > 25000 nM | 200 to 1000 nM
14 | CC(C)[C@@H]1Cn2nc(C3CC3)c(-c3cccnc3)c2-c2cc(=O)c(C(=O)O)cn21 [Example 140, (R)-2-cyclopropyl-6-isopropyl-10-oxo-1-(pyridin-3-yl)-5,6-dihydro-10H-pyrazolo[1,5-a]pyrido[2,1-c]pyrazine-9-carboxylic acid] | > 25000 nM | < 100 nM
15 | COc1ccc(-c2nn3c(c2-c2ccc(OC)cc2)-c2cc(=O)c(C(=O)O)cn2[C@H](C(C)(C)C)C3)cc1 [Example 98, (R)-6-(tert-butyl)-1,2-bis(4-methoxyphenyl)-10-oxo-5,6-dihydro-10H-pyrazolo[1,5-a]pyrido[2,1-c]pyrazine-9-carboxylic acid] | > 25000 nM | < 100 nM
16 | Cc1sccc1-c1c(C2CC2)nn2c1-c1cc(=O)c(C(=O)O)cn1[C@H](C(C)(C)C)C2 [Example 160, (R)-6-(tert-butyl)-2-cyclopropyl-1-(2-methylthiophen-3-yl)-10-oxo-5,6-dihydro-10H-pyrazolo[1,5-a]pyrido[2,1-c]pyrazine-9-carboxylic acid] | > 25000 nM | < 100 nM
17 | CC(C)(C)[C@@H]1Cn2nc(-c3cccc4nonc34)cc2-c2cc(=O)c(C(=O)O)cn21 [Example 58, (R)-2-(benzo[c][1,2,5]oxadiazol-4-yl)-6-(tert-butyl)-10-oxo-5,6-dihydro-10H-pyrazolo[1,5-a]pyrido[2,2-c]pyrazine-12-carboxylic acid] | > 25000 nM | < 100 nM
18 | CC(C)(C)[C@@H]1Cn2nc(C3CC3)c(-c3ccccc3F)c2-c2cc(=O)c(C(=O)O)cn21 [Example 148, (R)-6-(tert-butyl)-2-cyclopropyl-1-(2-fluorophenyl)-10-oxo-5,6-dihydro-10H-pyrazolo[1,5-a]pyrido[2,1-c]pyrazine-9-carboxylic acid] | > 25000 nM | < 100 nM
19 | CC(C)(C)[C@@H]1Cn2nc(-c3ccccc3OCC3CC3)cc2-c2cc(=O)c(C(=O)O)cn21 [Example 75, (R)-6-(tert-butyl)-2-(2-(cyclopropylmethoxy)phenyl)-10-oxo-5,6-dihydro-10H-pyrazolo[1,5-a]pyrido[2,2-c]pyrazine-12-carboxylic acid] | > 25000 nM | < 100 nM
20 | CCOc1c(F)cccc1-c1cc2n(n1)C[C@@H](C(C)(C)C)n1cc(C(=O)O)c(=O)cc1-2 [Example 71, (R)-6-(tert-butyl)-2-(2-ethoxy-3-fluorophenyl)-10-oxo-5,6-dihydro-10H-pyrazolo[1,5-a]pyrido[2,2-c]pyrazine-12-carboxylic acid] | > 25000 nM | < 100 nM
21 | O=C(O)c1cn2c(cc1=O)-c1c(-c3ccccc3)c(-c3ccccc3)nn1CC2 [Example 199, 10-oxo-1,2-diphenyl-5,6-dihydro-10H-pyrazolo[1,5-a]pyrido[2,1-c]pyrazine-9-carboxylic acid] | > 25000 nM | < 100 nM
22 | CC(C)(C)[C@@H]1Cn2nc(-c3cnc(NC4CC4)nc3)cc2-c2cc(=O)c(C(=O)O)cn21 [Example 15, (R)-6-(tert-butyl)-2-(2-(cyclopropylamino)pyrimidin-5-yl)-10-oxo-5,6-dihydro-10H-pyrazolo[1,5-a]pyrido[2,2-c]pyrazine-12-carboxylic acid] | > 25000 nM | < 100 nM
23 | CC(C)(C)[C@@H]1Cn2nc(-c3c(F)cccc3Cl)cc2-c2cc(=O)c(C(=O)O)cn21 [Example 65, (R)-6-(tert-butyl)-2-(2-chloro-6-fluorophenyl)-10-oxo-5,6-dihydro-10H-pyrazolo[1,5-a]pyrido[2,2-c]pyrazine-12-carboxylic acid] | > 25000 nM | < 100 nM
24 | CC(C)(C)[C@@H]1Cn2nc(C3CC3)c(-c3ccc(F)cc3)c2-c2cc(=O)c(C(=O)O)cn21 [Example 146, (R)-6-(tert-butyl)-2-cyclopropyl-1-(4-fluorophenyl)-10-oxo-5,6-dihydro-10H-pyrazolo[1,5-a]pyrido[2,1-c]pyrazine-9-carboxylic acid] | > 25000 nM | < 100 nM
25 | CC(C)(C)[C@@H]1Cn2nc(-c3cc(F)c(F)cc3O)cc2-c2cc(=O)c(C(=O)O)cn21 [Example 66, (R)-6-(tert-butyl)-2-(4,5-difluoro-2-hydroxyphenyl)-10-oxo-5,6-dihydro-10H-pyrazolo[1,5-a]pyrido[2,2-c]pyrazine-12-carboxylic acid] | > 25000 nM | < 100 nM
26 | CC(C)(C)[C@@H]1Cn2nc(-c3cc(F)ccc3F)cc2-c2cc(=O)c(C(=O)O)cn21 [Example 61, (R)-6-(tert-butyl)-2-(2,5-difluorophenyl)-10-oxo-5,6-dihydro-10H-pyrazolo[1,5-a]pyrido[2,2-c]pyrazine-12-carboxylic acid] | > 25000 nM | < 100 nM
27 | CC(C)[C@@H]1Cn2nc(-c3ccc(F)cc3)c(-c3ccc(F)cc3)c2-c2cc(=O)c(C(=O)O)cn21 [Example 180, (R)-1,2-bis(4-fluorophenyl)-6-isopropyl-10-oxo-5,6-dihydro-10H-pyrazolo[1,5-a]pyrido[2,1-c]pyrazine-9-carboxylic acid] | 10000 to 25000 nM | < 100 nM
